{"source": "paper PMC6332427", "about": "“Drug Discovery of Host CLK1 Inhibitors for Influenza Treatment” (Molecules, 2015)", "key": {"[1]": {"target": "T1, recombinant human CLK1 (Homo sapiens, UniProt P49759)", "T1 construct": "The primer of human full length CLK1 gene was as follows; made in house; host or cells: Sf9 insect cells (baculovirus, pFastBac1)", "T1 sequence (P49759 whole entry)": "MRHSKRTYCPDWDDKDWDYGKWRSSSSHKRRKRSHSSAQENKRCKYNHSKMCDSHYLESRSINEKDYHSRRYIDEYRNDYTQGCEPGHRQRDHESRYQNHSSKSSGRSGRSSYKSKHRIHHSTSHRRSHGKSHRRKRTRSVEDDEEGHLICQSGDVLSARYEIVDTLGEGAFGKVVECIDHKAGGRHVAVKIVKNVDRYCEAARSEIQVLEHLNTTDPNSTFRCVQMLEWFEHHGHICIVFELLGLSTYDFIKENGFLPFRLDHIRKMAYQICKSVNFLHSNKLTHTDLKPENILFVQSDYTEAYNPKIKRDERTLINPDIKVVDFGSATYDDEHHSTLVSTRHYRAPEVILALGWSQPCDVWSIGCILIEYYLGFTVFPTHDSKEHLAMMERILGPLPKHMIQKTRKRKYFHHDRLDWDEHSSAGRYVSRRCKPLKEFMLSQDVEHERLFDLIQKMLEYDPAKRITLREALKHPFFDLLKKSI", "test": "CLK1 inhibitory assay (Kinase-Glo luminescent kinase assay, MBP substrate)", "assay_type": "biochemical", "experimental": "The optimal conditions were dependent on the largest change in luminescence when comparing kinase reaction wells with control wells.\nThe kinase assay in this study utilized appropriate concentration of recombinant purified protein CLK1 in the presence of MBP as the substrate, MgCl2, MnCl2, ATP in kinase buffer (10 mM Tris, 1 mM EGTA, 100 μM sodium orthovanadate, 10 μM p-nitrophenyl phosphate (PNP), pH7.4) in a reaction volume of 20 μL. The reaction system were incubated at 25 °C for appropriate time. The Kinase-Glo® Luminescent Kinase Assay Platform was used to measure kinase activity by quantitating the amount of ATP, the signals of which were recorded using PerkinElmer’s EnSpire Multilabel Plate Reader. All the above components were added to the plate by automatic dispenser (EDR-384S, BioTec, Tokyo, Japan). A series of parameters containing the amount of kinase (1.16–298 ng/mL), MBP (3.125–150 μg/mL), ATP (0.1–100 μM), Mg^2+ (0.01–100 mM), Mn^2+ (0.5–20 mM), the percentage of DMSO (0.03%–10%), reaction time and temperature were optimized respectively in order to get best performance. Z′ factor values was calculated as described.\nThe inhibition percentage of the compounds against CLK1 were calculated according to the formula: (1) inhibition%=[(RLUsample−RLUpositive)/(RLUnegative−RLUpositive)]×100% where the RLUsample, RLUpositive, RLUnegative are the measured RLU values with treatment of test compounds, the wells free of test compounds, and that of without kinase, respectively."}, "[2]": {"system": "influenza virus A/PR/8/34 (H1N1)", "test": "in vitro", "details": "MDCK, H1N1"}, "[3]": {"system": "influenza virus A/PR/8/34 (H1N1)", "test": "organism not typed", "details": "MDCK"}, "[4]": {"test": "Cytotoxicity assay in MDCK cells (MTT, 72 h)", "details": "dog"}, "[5]": {"system": "MDCK cells", "test": "Cytotoxicity assay in MDCK cells (MTT, 72 h)", "details": "MDCK cells; for CC0 (maximal non-cytotoxic concentration) / CC50 (50% cytotoxic concentration): 72 h, MTT; for CC0 (maximal non-cytotoxic concentration): more than 90% cells viable"}, "[6]": {"system": "MDCK cells", "details": "dog, 72 h"}, "[7]": {"test": "in vitro", "details": "dog"}, "[8]": {"system": "CLK1", "details": "cited from earlier work"}, "[9]": {"system": "influenza virus A/PR/8/34 (H1N1)"}, "[10]": {"details": "Kinase-Glo assay, read-out: IC50 (converted)"}, "[11]": {"details": "Post-Treatment Assay SI (selective index, CC50/EC50), post-treatment"}, "[12]": {"details": "24 h, read-out: Simultaneous Treatment Assay EC50"}, "[13]": {"details": "read-out: Post-Treatment Assay EC50"}, "[14]": {"details": "read-out: Pre-Treatment Assay EC50"}, "[15]": {"details": "H1N1 (MOI 0.01) incubated with MDCK cells 2 h, then compound, 24 h, mean ± SD"}, "[16]": {"details": "H1N1 (MOI 0.01) pre-incubated with compound 2 h at 37 °C before addition to MDCK cells, 24 h, mean ± SD"}, "[17]": {"details": "compound added along with H1N1 (MOI 0.01) to MDCK cells, 24 h, mean ± SD"}}, "note": "Where two headings read alike, the source gives them in different places."}
{"compound": "O=c1cc(-c2ccc(O)c(O)c2)oc2cc(O)cc(O)c12", "note": "[J20725, Luteolin]", "values": [{"measurement": "IC50", "setting": "[1]; [10]", "value": "< 175", "unit": "µM"}, {"measurement": "selectivity ratio at 24 h", "setting": "[2]; [11]", "value": 4.33}, {"measurement": "EC50", "setting": "[3]; [12]", "value": "> 10", "unit": "µg/mL"}, {"measurement": "EC50", "setting": "[3]; [13]", "value": "5.74 ± 0.54", "unit": "µg/mL"}, {"measurement": "EC50", "setting": "[3]; [14]", "value": "> 10", "unit": "µg/mL"}, {"measurement": "CC50 at 72 h", "setting": "[4]; MDCK cells", "value": 24.9, "unit": "µg/mL"}, {"measurement": "concentration above which toxic effects occur", "setting": "[5]", "value": "above 10 μg/mL"}, {"measurement": "CC0 (maximal non-cytotoxic concentration)", "setting": "[5]", "value": 10, "unit": "µg/mL"}]}
{"compound": "O=c1cc(-c2ccccc2)oc2c(O)c(O)cc(O)c12", "note": "[J21548, Norwogonin]", "values": [{"measurement": "IC50", "setting": "[1]; IC50, Kinase-Glo assay", "value": "< 185", "unit": "µM"}, {"measurement": "CC0 (maximal non-cytotoxic concentration)", "setting": "[6]", "value": 30, "unit": "µg/mL"}, {"measurement": "CC50 at 72 h", "setting": "[7]", "value": 91.8, "unit": "µg/mL"}, {"measurement": "EC50", "setting": "[3]; [12]", "value": "> 30", "unit": "µg/mL"}, {"measurement": "EC50", "setting": "[3]; [13]", "value": "> 30", "unit": "µg/mL"}, {"measurement": "EC50", "setting": "[3]; [14]", "value": "> 30", "unit": "µg/mL"}]}
{"compound": "CCCOC(=O)c1cc(O)c(O)c(O)c1", "note": "[J25986, Propyl gallate]", "values": [{"measurement": "IC50", "setting": "[1]; [10]", "value": "< 236", "unit": "µM"}, {"measurement": "selectivity ratio at 24 h", "setting": "[2]; [11]", "value": 53.2}, {"measurement": "selectivity ratio at 24 h", "setting": "[2]; Pre-Treatment Assay SI (selective index, CC50/EC50), pre-treatment", "value": 11.4}, {"measurement": "selectivity ratio at 24 h", "setting": "[2]; Simultaneous Treatment Assay SI (selective index, CC50/EC50), simultaneous treatment", "value": 14.1}, {"measurement": "EC50", "setting": "[3]; [12]", "value": "12.9 ± 8.06", "unit": "µg/mL"}, {"measurement": "EC50", "setting": "[3]; [13]", "value": "3.42 ± 0.2", "unit": "µg/mL"}, {"measurement": "EC50", "setting": "[3]; [14]", "value": "15.9 ± 6.94", "unit": "µg/mL"}, {"measurement": "CC50 at 72 h", "setting": "[4]; MDCK cells", "value": 182, "unit": "µg/mL"}, {"measurement": "CC0 (maximal non-cytotoxic concentration)", "setting": "[5]", "value": 30, "unit": "µg/mL"}]}
{"compound": "COC(=O)c1cc(O)c(O)c(O)c1", "note": "[Methyl gallate]", "values": [{"measurement": "IC50", "setting": "[1]; IC50, Kinase-Glo assay", "value": "< 272", "unit": "µM"}, {"measurement": "CC0 (maximal non-cytotoxic concentration)", "setting": "[6]", "value": 30, "unit": "µg/mL"}, {"measurement": "EC50", "setting": "[3]; [12]", "value": "> 30", "unit": "µg/mL"}, {"measurement": "EC50", "setting": "[3]; [13]", "value": "> 30", "unit": "µg/mL"}, {"measurement": "EC50", "setting": "[3]; [14]", "value": "> 30", "unit": "µg/mL"}, {"measurement": "CC50 at 72 h", "setting": "[4]", "value": 69.5, "unit": "µg/mL"}]}
{"compound": "c1csc(CNc2ncnc3ccc(-c4ccc5c(c4)OCO5)cc23)c1", "note": "[NCGC00010037]", "values": [{"measurement": "IC50", "setting": "[8]", "value": 37, "unit": "nM"}]}
{"compound": "NC(=O)c1ncn([C@@H]2O[C@H](CO)[C@@H](O)[C@H]2O)n1", "note": "[Ribavirin, reference compound]", "values": [{"measurement": "EC50", "setting": "[3]; [12]", "value": "10.3 ± 2.38", "unit": "µg/mL"}, {"measurement": "EC50", "setting": "[3]; [13]", "value": "13.8 ± 3.47", "unit": "µg/mL"}, {"measurement": "EC50", "setting": "[3]; [14]", "value": "4.36 ± 0.99", "unit": "µg/mL"}, {"measurement": "CC50 at 72 h", "setting": "[4]", "value": "> 200", "unit": "µg/mL"}]}
{"compound": "CCN1/C(=C/C(C)=O)Sc2ccc(OC)cc21", "note": "[TG003, reference compound]", "values": [{"measurement": "Post-Treatment Assay EC50", "setting": "[9]; [15]", "value": "3.56 ± 1.47", "unit": "µg/mL"}, {"measurement": "Pre-Treatment Assay EC50", "setting": "[9]; [16]", "value": "5.09 ± 0.78", "unit": "µg/mL"}, {"measurement": "Simultaneous Treatment Assay EC50", "setting": "[9]; [17]", "value": "15.75 ± 3.49", "unit": "µg/mL"}, {"measurement": "IC50", "setting": "[8]", "value": "[…]"}]}
{"compound": "Chebulanin [J12133]", "values": [{"measurement": "IC50", "setting": "[1]; Kinase-Glo assay", "value": "lower than 50 μg/mL"}, {"measurement": "Post-Treatment Assay EC50", "setting": "[9]; [15]", "value": "21.11 ± 11.15", "unit": "µg/mL"}, {"measurement": "Pre-Treatment Assay EC50", "setting": "[9]; [16]", "value": "15.29 ± 10.35", "unit": "µg/mL"}, {"measurement": "Simultaneous Treatment Assay EC50", "setting": "[9]; [17]", "value": "9.84 ± 0.44", "unit": "µg/mL"}, {"measurement": "Post-Treatment Assay SI (selective index, CC50/EC50)", "setting": "[9]; post-treatment, MDCK, H1N1", "value": 4.28}, {"measurement": "Pre-Treatment Assay SI (selective index, CC50/EC50)", "setting": "[9]; pre-treatment, MDCK, H1N1", "value": 5.90}, {"measurement": "Simultaneous Treatment Assay SI (selective index, CC50/EC50)", "setting": "[9]; simultaneous treatment, MDCK, H1N1", "value": 9.17}, {"measurement": "CC50 (50% cytotoxic concentration)", "setting": "[5]", "value": 90.27, "unit": "µg/mL"}, {"measurement": "CC0 (maximal non-cytotoxic concentration)", "setting": "[5]", "value": 30, "unit": "µg/mL"}]}
{"compound": "Hispidulin [J20353]", "values": [{"measurement": "IC50", "setting": "[1]; Kinase-Glo assay", "value": "lower than 50 μg/mL"}, {"measurement": "Post-Treatment Assay EC50", "setting": "[9]", "value": ">30", "unit": "µg/mL"}, {"measurement": "Pre-Treatment Assay EC50", "setting": "[9]", "value": "18.89 ± 5.1", "unit": "µg/mL"}, {"measurement": "Simultaneous Treatment Assay EC50", "setting": "[9]", "value": "5.26 ± 2.48", "unit": "µg/mL"}, {"measurement": "CC50 (50% cytotoxic concentration)", "setting": "[5]", "value": 60.35, "unit": "µg/mL"}, {"measurement": "CC0 (maximal non-cytotoxic concentration)", "setting": "[5]", "value": 30, "unit": "µg/mL"}]}
